Test results as given in patent US9713608B2, “Method for topically treating actinic keratosis on the trunk (except chest) or extremities with ingenol 3-(3,5-diethylisoxazole-4-carboxylate)” (LEO Laboratories Limited, priority 2013, dated 2017).

Tests used:
[1] = Phase 1 exploratory trial: safety and tolerability of topical gel on forearms of subjects with actinic keratosis; format: in vivo, human; details: for mean composite LSR scores, time of peak: 8-week trial period; for mean composite LSR scores at Week 8: Week 8, relative to baseline; for number of SAEs of SCC within treated areas: four SAEs in three subjects, about three times more fields treated with ingenol 3-(3,5-diethylisoxazole-4-carboxylate); for most common treatment related AEs: human, in vivo
Description: Local skin reactions (LSRs) occurs sometimes in the treated area. Often LSRs are quantified by a scale evaluating the following types of skin reactions: erythema, flaking/scaling, crusting, swelling, vasiculation/pustulation, and erosion/ulceration which are categorized into categories 0-4 depending on the severity of the reactions.
A Phase 1 exploratory trial evaluating safety and tolerability of topical administration of ingenol 3-(3,5-diethylisoxazole-4-carboxylate) gel, 0.025%, 0.05% and 0.075% compared to ingenol mebutate gel 0.05% applied on two consecutive days to four separate 25 cm^2 treatment areas on the forearms of subjects with actinic keratosis (field therapy). A single-centre, randomised, active controlled, intra-patient controlled, investigator blind trial.
It is presently believed that ingenol 3-(3,5-diethylisoxazole-4-carboxylate) has a higher efficacy and/or milder LSR profile than ingenol mebutate.
This was a phase 1, single-centre, randomised, active controlled, intra-patient controlled, investigator blinded trial with intra-individual comparisons to explore the safety and tolerability of ingenol 3-(3,5-diethylisoxazole-4-carboxylate) gel 0.025%, 0.05%, and 0.075% compared to ingenol mebutate gel 0.05% applied once daily for two consecutive days on the forearms of subjects with AK.
(§1) The trial population included 40 subjects at least 18 years of age with 12-16 clinically typical, visible, discrete, non-keratotic AK lesions (referred to as selected AK lesions) suitable for RCM within four separate 25 cm^2 (5×5 cm) selected treatment areas (STAs) on the dorsal aspects of the forearms. Each STA was to be separated by at least 5 cm from other STAs.
For each eligible subject, the four STAs are randomised to receive one of four of the investigational product (IP or IPs): • ingenol 3-(3,5-diethylisoxazole-4-carboxylate) gel 0.025% • ingenol 3-(3,5-diethylisoxazole-4-carboxylate) gel 0.05% • ingenol 3-(3,5-diethylisoxazole-4-carboxylate) gel 0.075% • Ingenol mebutate gel 0.05%
Each IP is to be applied to one of the four STAs on each subject according to random assignment on two consecutive days (Day 1 and Day 2). This ensured that all subjects are treated with the four products on both treatment days. The trial consisted of three periods, a screening period, a treatment period, and an observation and follow-up period.
Each IP is applied to one of the four STAs on each subject according to random assignment on two consecutive days (Day 1 and Day 2). The IPs are applied by a specified investigational staff member in the clinical study protocol. Subjects are instructed about post-treatment care and provided with a patient safety and study medication instruction sheet.

[2] = tested on: actinic keratosis (AK) lesions; experiment: Phase 1 exploratory trial: treatment response of AK lesions (clinical count and Reflectance Confocal Microscopy); format: in vivo, human; details: for RCM findings in lesions: overall, clinically visible AK lesions and subclinical lesions
Description: To evaluate treatment responses on AKs of the three concentrations of ingenol 3-(3,5-diethylisoxazole-4-carboxylate) gel compared to the ingenol mebutate gel as assessed by reduction in number of clinically visible selected AK lesions eight weeks after treatment.
To evaluate treatment responses on AKs of the three concentrations of ingenol 3-(3,5-diethylisoxazole-4-carboxylate) gel compared to the ingenol mebutate gel as assessed by Reflectance Confocal Microscopy (RCM) scoring of the clinically visible selected AK lesions before and eight weeks after treatment.
as §1
Whenever possible, four visible and discrete selected AK lesions are identified within each of the four STAs. However, one STA with three selected AK lesions is acceptable for a subject. The selected AK lesions are assessed by RCM. If a selected AK lesion could not be confirmed as an AK lesion by RCM, another STA with selected AK lesions has to be identified. In addition, each subject is to have one subclinical AK lesion suitable for RCM within each STA (these subclinical AKs are referred to as selected subclinical AK lesions).
Treatment efficacy is included as a secondary endpoint and assessed by change in number of clinically visible AK lesions from baseline to 8 weeks after treatment and change in RCM scores from baseline to 8 weeks after treatment.

dermal tumours = experiment: in vivo studies in mice, effects on dermal tumours; details: compared to ingenol mebutate
Description: The exact mechanism of action of ingenol 3-(3,5-diethylisoxazole-4-carboxylate) continues to be investigated, but it is believed that ingenol 3-(3,5-diethylisoxazole-4-carboxylate) has a dual mechanism of action inducing cell death as well as stimulation of immune response.

[3] = difficult to treat versus more easily treated anatomical regions; cited from earlier work

| SMILES | mean composite LSR scores, time of peak [1] | mean composite LSR scores at Week 8 [1] | incidence of AEs inside STAs ([1]; between treatments) | number of SAEs of SCC within treated areas [1] | most common treatment related AEs [1] | events of Bowen's disease inside treated area ([1]; possibly related AE, reclassified to SAE by sponsor) | change of RCM scores ([2]; baseline to 8 weeks, between the two actives) | RCM findings in lesions [2] | efficacy in eliminating dermal tumours (dermal tumours) | local skin reactions after a given dose [3] |
| --- | --- | --- | --- | --- | --- | --- | --- | --- | --- | --- |
| CCc1noc(CC)c1C(=O)O[C@H]1C(C)=C[C@]23C(=O)[C@@H](C=C(CO)[C@@H](O)[C@]12O)[C@H]1[C@@H](C[C@H]3C)C1(C)C [ingenol 3-(3,5-diethylisoxazole-4-carboxylate)] | peaked at Week 1 | below baseline at Week 8 | no difference | Two | pruritus, burning sensation and tenderness | one | no difference | honeycomb pattern of lesions improved, keratosis decreased, and the thickness of stratum corneum and viable epidermis decreased | more efficacious than ingeno mebutate | – |
| C/C=C(/C)C(=O)O[C@H]1C(C)=C[C@]23C(=O)[C@@H](C=C(CO)[C@@H](O)[C@]12O)[C@H]1[C@@H](C[C@H]3C)C1(C)C [ingenol mebutate, reference compound] | peaked at Week 1 | below baseline at Week 8 | – | two | pruritus, burning sensation and tenderness | – | – | honeycomb pattern of lesions improved, keratosis decreased, and the thickness of stratum corneum and viable epidermis decreased | – | milder on difficult to treat anatomical regions |
